Literature values in US20230404077A1, “METHODS AND FORMULATIONS FOR CONTROLLING FLEA INFESTATIONS” (EctoGuard, LLC, priority 2022, published 2023).

What was measured:
fleas [1] = details: cats
fleas [2] = details: systemic / administered orally
fleas [3] = details: cats, topical

Substance	commercial oral dose for effective control (≥90% mortality) (fleas [1])	activity relative to spinosad (fleas [2])	topically active dose, corresponding extrapolated value (fleas [3])
spinosad	45 to 90 mg/kg	–	–
spinetoram	–	5.5 times	around 10 mg/kg
